In patent US12162811B2, “F-18 labeled chiral pure derivative of hydroxyfuran, preparation method and use thereof” (The First Affiliated Hospital of Sun Yat-sen University, priority 2022, dated 2024):
“Also recorded” adds a separate entry of the source. One block for each compound: values may come before it.

Columns and labels:
[1] = biodistribution in human body (ROI time-activity profiles of source organs); type: in vivo
Excerpt: For the 6 sets of images obtained by Example 5, the ROI was depicted in the whole body images at the first time point and replicated to subsequent time point scans so as to determine the cumulative radioactivity in each source organ. The genital volume was manually adjusted if necessary. Major source organs include brain, thyroid, lung, heart wall, liver, gallbladder, stomach, adrenals, kidneys, pancreas, spleen, uterus (female only), testes (male only), and bone marrow. The biodistribution analysis included muscle and the absorbed dose analysis included bladder. Spinal ROIs were plotted as an alternative to the red bone marrow. Time-activity profiles were derived from each ROI, and cumulative radioactivity for each source organ was expressed as a percentage of the injected dose (% ID).

HCT8 xenograft tumor = assay: micro-PET/CT imaging of tumor-bearing nude mice after intratumoral or tail vein injection; type: in vivo, nude mouse; settings: for SUVmax in the tumor: 5 min after injection; for SUVmax of the tumors: 1 h
Protocol: A nude mouse model with HCT8 xenograft tumor was established, and dynamic imaging was performed after intratumoral injection upon anesthesia of the tumor-bearing mice: 0.1 mL (about 100 μCi) of the solution prepared automatically with saline dilution with or without supersaturated sodium ascorbate was taken from a 1 mL syringe needle, and the solution was injected intratumorally into the nude mice model with an automatic syringe pump at 0.1 mL/min, and a dynamic 1-h microPET/CT imaging was performed. Delayed imaging was performed: statically imaged 2 h after injection.
Static micro-PET/CT imaging was performed 1 hour after tail vein injection in the anesthetized tumor-bearing mice.

tumor lesions = assay: whole-body dynamic PET/CT imaging of tumor patients; type: in vivo, human
Protocol: Six patients with different tumors fasted and urinated for at least 6 hours prior to receiving PET/CT scanning, approximately 5, 13, 30, 45 and 60 minutes after injection of (4R, 5R)[^18F]FAA (mean 448±113 MBq), the five consecutive whole-body dynamic PET/CT scanning was conducted for each participant using a uMI 780 scanner (United Imaging Healthcare) or Discovery MI scanner (GE Healthcore). The CT acquisition parameters of the uMI 780 scanner were 120 kV, smart 100-200 mAs, detector coverage of 40 mm, spacing of 0.9875, slice thickness of 1.0 mm, and rotation time of 0.5 s. The PET emission scan time was 1.5 min per bed with 6 beds covering the scanning area. Finally, the PET images were reconstructed by the regularized ordered subset expectation maximization algorithm (R-OSEM, UNITED IMAGING) with attenuation normalization using ACCT images. The CT acquisition parameters of the Discovery MI scanner were 120 kV, smart 120-180 mA, detector coverage of 40 mm, slice thickness of 0.625 mm, pitch to speed of 0.984:1, 39.37 and rotation time of 0.6 s. The PET emission scanning time was 1 min per bed with 6 to 8 beds covering the scanning area. Finally, the PET images were reconstructed by a Bayesian penalized likelihood (BPL) reconstruction algorithm (Q.clear, GE Healthcare) and attenuation nominalization was performed using ACCT images. Urine samples were collected after the last PET/CT scan and total radioactivity of the urine was assessed.

[2] = radiometrics: residence times and radiation absorbed dose (MIRD); type: in vivo, human
Protocol: For the six sets of data obtained through Example 6, the residence times were calculated as the area under each time-activity curve by curve fitting with either a mono-or bi-exponential function model. The residence times of the bladder were generated by the integration of the time-activity curve from zero time to the last emission scan time plus the integration of the function from the last scan time to infinity (physical decay only). These residence times are then used for radiation absorbed dose calculations. The radiation absorbed dose was calculated for each subject using the Medical Internal Radiation Dose (MIRD) algorithm. The absorbed dose in the target area specified by MIRD was calculated according to the standardized Cristy Eckerman 70 kg adult male model, and the effective dose was assessed according to the tissue weighting factors in the publication of International Commission on Radiological Protection.

[3] = comparison PET tracer; cited from earlier work
[4] = intratumoral injection, with supersaturated sodium ascorbate
[5] = intratumoral injection, without supersaturated sodium ascorbate

- uptake in liver, adrenal glands, choroid plexus, pituitary gland and thyroid (exception of the kidney) ([1]; 1 h after injection): high uptake
- uptake in heart, muscle and brain ([1]; during the imaging phase): low
- uptake in liver, adrenal glands, kidneys, choroid plexus, pituitary gland and thyroid ([1]; earliest imaging time point, most subjects): high uptake
- uptake in spleen, intestine, salivary glands and bone marrow ([1]; slow clearance over time): moderate uptake
- effect of added supersaturated sodium ascorbate on metabolism of the tracer in the liver (HCT8 xenograft tumor; intratumoral injection, dynamic imaging): significantly inhibited
- mean effective dose (ED) ([2]; ICRP tissue weighting factors): 1.68±0.36E-02 mSv/MBq
- absorbed dose ([2]; adrenal gland): 1.89±0.61E-02 mGy/MBq
- residence time ([2]; bladder wall): 1.16±0.54E-03 hours
- absorbed dose ([2]; brain): 4.88±1.21E-03 mGy/MBq
- absorbed dose ([2]; kidney): 1.87±0.38E-02 mGy/MBq
- residence time ([2]; kidney): 1.77±0.53 E-03 hours
- absorbed dose ([2]; liver): 3.42±0.75E-02 mGy/MBq
- residence time ([2]; liver): 22.5±4.94 E-02 hours
- residence time ([2]; lung): 3.18±0.49 E-02 hours
- absorbed dose ([2]; spleen): 2.95±1.70E-02 mGy/MBq
- residence time ([2]; spleen): 2.19±1.59 E-02 hours
- residence time ([2]; thymus): 2.74±1.37E-05 h
- mean systemic absorbed dose ([2]; whole body): 6.54±1.58E-03 mSv/MBq
Compound: O=C1O[C@H]([C@@H](O)C[18F])C(O)=C1O [(4R, 5R)[^18F]FAA]
- route of excretion ([1]; human): excreted mainly through the kidneys to the bladder
- SUVmax in the tumor (HCT8 xenograft tumor; [4]): 165 % ID/g
- SUVmax of the tumors (HCT8 xenograft tumor; [4]): 45 % ID/g
- SUVmax in the tumor (HCT8 xenograft tumor; [5]): 88 % ID/g
- SUVmax of the tumors (HCT8 xenograft tumor; [5]): 34 % ID/g
- SUVmax of tumors, delayed imaging (HCT8 xenograft tumor; intratumoral injection, without supersaturated sodium ascorbate, 2 h after injection): 35 % ID/g
- SUVmax of the tumors (HCT8 xenograft tumor; tail vein injection): 6.3 % ID/g
- uptake in tumors (HCT8 xenograft tumor; tumor-bearing mice): certain tumor uptake; also recorded: high uptake in tumors
- metastases detected (tumor lesions; 6 patients): 168
- primary lesions detected (tumor lesions; 6 patients): 2
- mean SUVmax in all tumor lesions (tumor lesions; 6 patients, all tumor lesions): 6.89±3.82
- median SUVmax in all tumor lesions (tumor lesions; 6 patients, all tumor lesions): 6.07
- range of SUVmax in all tumor lesions (tumor lesions; 6 patients, all tumor lesions): 1.62-22.85
- tumor radioactivity uptake (tumor lesions; kidney cancer and intestinal cancer patients): average tumor radioactivity uptake
- uptake in primary and metastatic tumor foci (tumor lesions; thyroid cancer and lung cancer): very high uptake
- safety in humans (tumor lesions; tumor patients): safe for use in humans
- uptake in tumors (tumor lesions; tumor patients): high uptake in tumors

Compound: [^18F]FDG
- systemic absorbed effective dose [3]: 1.90±0.36 E-02 mSv/MBq
